Structures can show the parent of a compound that is named as a salt.
What was measured:
Type in all cases: physicochemical
Aqueous solubility = conditions: water
[1] = Solubility in organic solvents
Intrinsic dissolution = assay: Intrinsic dissolution
[2] = Hygroscopicity (descriptive)
[3] = Sorption-desorption isotherms, VTI humidity balance; conditions: for Sorption: 25° C., first sorption cycle; for Desorption: in % (unit assumed)
Method: Sorption-desorption isotherms were recorded by a VTI humidity balance. The salts of (N-hydroxy-3-[4-[[[2-(2-methyl-1H-indol-3-yl)ethyl]amino]methyl]phenyl]-2E-2-propenamide were first subjected to a drying step (25° C., r.h. below 2%, 2 hours) and then to a sorption-desorption-sorption sequence, with each RH % step retained for 3 hours. The free base was kept below 2% r.h. for several hours, and thus was completely dehydrated after the drying step. Only the data of the first sorption cycle are given in the table, since, in all cases, the two sorption cycles were very similar.

[4] = Equilibration in solvents and aqueous media, solid form by XRPD

| aqueous solubility (Aqueous solubility) | solubility in methanol and ethanol [1] | solubility in other common / remaining organic solvents [1] | intrinsic dissolution (Intrinsic dissolution) | hygroscopicity [2] | Sorption ([3]; Sample RH % 1.5) | Sorption ([3]; Sample RH % 5) | Desorption ([3]; Sample RH % 5) | Sorption ([3]; Sample RH % 25) | Desorption ([3]; Sample RH % 25) | Sorption ([3]; Sample RH % 50) | Desorption ([3]; Sample RH % 50) | Sorption ([3]; Sample RH % 75) | Desorption ([3]; Sample RH % 75) | Sorption ([3]; Sample RH % 85) | Desorption ([3]; Sample RH % 85) | Sorption ([3]; Sample RH % 95) | Desorption ([3]; Sample RH % 95) | XRPD form after equilibration ([4]; 2-Propanol) | XRPD form after equilibration ([4]; Acetone) | SMILES | further results |
| --- | --- | --- | --- | --- | --- | --- | --- | --- | --- | --- | --- | --- | --- | --- | --- | --- | --- | --- | --- | --- | --- |
| 12900 µg/mL | high solubility | appreciable solubility | high | very slightly hygroscopic | 0% | 0.03% | −0.03 | 0.1% | 0.07 | 0.16% | 0.16 | 0.23% | 0.25 | 0.31% | 0.33 | 0.82% | 0.82 | No change | No change | Cc1[nH]c2ccccc2c1CCNCc1ccc(/C=C/C(=O)NO)cc1 [Form A of the mesylate salt, N-hydroxy-3-[4-[[[2-(2-methyl-1H-indol-3-yl)ethyl]amino]methyl]phenyl]-2E-2-propenamide] | moisture at 85% r.h. ([3]; 85% r.h.): less than 0.35%; XRPD form after equilibration ([4]; 0.1 N HCl): hydrochloride salt; XRPD form after equilibration ([4]; Ethanol): No change; XRPD form after equilibration ([4]; Ethyl Acetate): No change; XRPD form after equilibration ([4]; Water, listed as Mesylate): Changed to new; XRPD form after equilibration ([4]; pH = 6.8 buffer (phosphate)): free base; XRPD form after equilibration ([4]; water): converts to form B |
| 2600 µg/mL | high solubility | considerable solubility | good | nonhygroscopic | 0% | 0.02% | −0.02 | 0.07% | 0.05 | 0.12% | 0.10 | 0.16% | 0.17 | 0.17% | 0.19 | 0.21% | 0.21 | No change | No change | Cc1[nH]c2ccccc2c1CCNCc1ccc(/C=C/C(=O)NO)cc1 [Form A of the maleate salt, N-hydroxy-3-[4-[[[2-(2-methyl-1H-indol-3-yl)ethyl]amino]methyl]phenyl]-2E-2-propenamide] | XRPD form after equilibration ([4]; Ethanol): No change; XRPD form after equilibration ([4]; Ethyl Acetate): No change; XRPD form after equilibration ([4]; Methanol): No change; XRPD form after equilibration ([4]; pH = 6.8 buffer (phosphate)): No change; XRPD form after equilibration ([4]; water): No change |

Reference: patent US7989494B2, “Polymorphs of N-hydroxy-3-[4-[[[2-(2-methyl-1H-indol-3-yl)ethyl]amino]methyl]phenyl]-2E-2-propenamide” (Novartis AG, priority 2006, dated 2011)
